{"source": "patent EP2276483B1", "about": "“SOLID FORMS COMPRISING (+)-2-[1-(3-ETHOXY-4-METHOXYPHENYL)-2-METHYLSULFONYLETHYL]-4-ACETYLAMINOISOINDOLINE-1,3-DIONE, COMPOSITIONS THEREOF, AND USES THEREOF” (CELGENE CORPORATION, priority 2008, dated 2009)", "key": {"serum TNF-α": {"test_system": "serum TNF-α", "experiment": "Mouse LPS-induced serum TNF-α inhibition", "type": "in vivo", "settings": "po, read-out: Mouse LPS-induced serum TNF-α inhibition (ED50, mg/kg, p.o.)", "protocol": "Compounds were tested in this animal model according to previously described methods (Corral et al., 1996, Mol. Med., 2:506-515). Mouse LPS-induced serum TNF-α inhibition (ED50, mg/kg, p.o.) = 0.05 for Compound A."}, "TNF-α": {"test_system": "TNF-α", "experiment": "IL-1β-induced TNF-α production from human PBMC", "type": "cell-based", "settings": "50 ng/ml recombinant human IL-1β", "protocol": "During the course of inflammatory diseases, TNF-α production is often stimulated by the cytokine 1L-1β, rather than by bacterially derived LPS. Compounds were tested for the ability to inhibit IL-1β-induced TNF-α production from human PBMC as described above for LPS-induced TNF-α production, except that the PBMC were isolated from source leukocyte units (Sera-Tec Biologicals, North Brunswick, NJ, USA) by centrifugation on Ficoll-Paque Plus (Amersham Pharmacia, Piscataway, NJ, USA), plated in 96-well tissue culture plates at 3 x 10^5 cells/well in RPMI-1640 medium (BioWhittaker, Walkersville, Maryland, USA) containing 10% heat-inactivated fetal bovine serum (Hyclone), 2 mM L-glutamine, 100 U/ml penicillin, and […] (complete medium), pretreated with compounds at 10, 2, 0.4, 0.08, 0.016, 0.0032, 0.00064, and 0 µM in duplicate at a final DMSO concentration of 0.1% at 37 °C in a humidified incubator at 5% CO2 for one hour, then stimulated with 50 ng/ml recombinant human IL-1β (Endogen) for 18 hours."}, "LTB4": {"test_system": "LTB4", "experiment": "fMLF-induced LTB4 production in neutrophils", "type": "cell-based", "settings": "Neutrophil; human neutrophils; 1 µM fMLF", "protocol": "N-formyl-methionine-leucine-phenylalanine (fMLF) is a bacterially derived peptide that activates neutrophils to rapidly degranulate, migrate, adhere to endothelial cells, and release leukotriene LTB4, a product of arachidonic acid metabolism and itself a neutrophil chemoattractant. Compounds were tested for the ability to block fMLF-induced neutrophil LTB4 production as previously described (Hatzelmann and Schudt, 2001, J. Pharm. Exp. Ther., 297:267-279), with the following modifications. Neutrophils were isolated as described above and resuspended in phosphate-buffered saline without calcium or magnesium (BioWhittaker) containing 10 mM HEPES pH 7.2 and plated in 96-well tissue culture plates at a concentration of 1.7 x 10^6 cells/well. Cells were treated with 50 µM thimerosal (Sigma)/1 mM CaCl2/1 mM MgCl2 for 15 minutes at 37°C 5% CO2, then treated with compounds at 1000, 200, 40, 8, 1.6, 0.32, 0.064, and 0 nM in a final DMSO concentration of 0.01 % in duplicate for 10 minutes. Neutrophils were stimulated with 1 µM fMLF for 30 minutes, then lysed by the addition of methanol (20% final concentration) and frozen in a dry ice/isopropanol bath for 10 minutes. Lysates were stored at -70°C until the LTB4 content was measured by competitive LTB4 ELISA (R&D Systems)."}, "CD18": {"test_system": "CD18", "experiment": "fMLF-induced CD18 expression on neutrophils", "type": "cell-based", "settings": "Neutrophil; human neutrophils; 30 nM fMLF", "protocol": "CD18/CD11b (Mac-1) expression on neutrophils was measured as previously described (Derian et al., 1995, J. Immunol., 154:308-3 17) with the following modifications. Neutrophils were isolated as described above, then resuspended in complete medium at 1x10^6 cells/ml, pretreated with compounds at 10, 1, 0.1, 0.01, and 0 µM in duplicate at a final DMSO concentration of 0.1% for 10 minutes at 37°C 5%CO2. Cells were then stimulated with 30 nM fMLF for 30 minutes and then chilled to 4°C. Cells were treated with rabbit IgG (Jackson ImmunoResearch Labs, West Grove, PA, USA) (10 µg/1x10^6 cells) to block Fc receptors, stained with CD18-FITC and CD11b-PE (Becton Dickinson), and analyzed by flow cytometry on a FACSCalibur. CD18/CD11b expression (mean fluorescence) in the absence of stimulation was subtracted from all samples to obtain inhibition curves and calculate IC50 values."}, "[1]": {"test_system": "neutrophil adhesion to HUVEC", "experiment": "fMLF-induced neutrophil adhesion to HUVEC", "type": "cell-based", "settings": "human neutrophils, 500 nM fMLF", "protocol": "Human umbilical vein endothelial cells (HUVEC) were used as a substrate for neutrophil adhesion as previously described (Derian et al., 1995, J. Immunol., 154:308-317) with the following modifications. HUVEC cells were obtained from Anthrogenesis (Cedar Knolls, NJ, USA), and neutrophils were not treated with cytochalasin B. Cells were treated with compounds at 10, 1, 0.1, 0.01, 0.001, and 0 µM in a final DMSO concentration of 0.1% in duplicate for 10 minutes, stimulated with 500 nM fMLF for 30 minutes, and washed twice with PBS before measuring fluorescence on an FLX800 plate reader (Bio-Tek Instruments, Winooski, VT, USA). Table 2. Assay results"}}}
{"smiles": "CCOc1cc(C(CS(C)(=O)=O)N2C(=O)c3cccc(NC(C)=O)c3C2=O)ccc1OC", "note": "(single isomer, unassigned; (+)) [Compound A, (+)-2-[1-(3-ethoxy-4-methoxyphenyl)-2-methylsulfonylethyl]-4-acetylaminoisoindoline-1,3-dione]", "values": [{"measurement": "ED50", "setting": "serum TNF-α", "result": 0.05, "unit": "mg/kg"}, {"measurement": "IC50", "setting": "TNF-α", "result": 83, "unit": "nM"}, {"measurement": "IC50", "setting": "LTB4", "result": 2.48, "unit": "nM"}, {"measurement": "IC50", "setting": "CD18", "result": 390, "unit": "nM"}, {"measurement": "IC50", "setting": "[1]", "result": 150, "unit": "nM"}]}
